# Assay results as given in patent US20250382305A1 (PTC THERAPEUTICS, INC., priority 2022, published 2025).
# Tests used:
# ATXN3 pre-mRNA = assay: RT-qPCR Assay to Quantify Exon 4 Skipping in ATXN3 pre-mRNA in Cells; type: cell-based; conditions: percent exon 4 skipping in ATXN3 pre-mRNA, RT-qPCR of cell lysates; average IC50
# How it was run: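 IC50 derives from a dose-response fit of percent exon 4 skipping, quantified by RT-qPCR on crude lysates. Compounds tested as 7-point 3.16-fold dilutions in duplicate; cells (10,000/well) were exposed for 24 h at 37 °C before lysis.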
# [1] = system: Total ATXN3 (tATXN3) protein; assay: Endogenous Total ATXN3 (tATXN3) Protein Assay (MSD immunoassay of cell lysates); type: cell-based; conditions: average IC50, total ATXN3 protein in cell lysate after 48 h with compound (Table 1)
# How it was run: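 By electrochemiluminescent MSD sandwich immunoassay (mouse monoclonal capture, rabbit monoclonal and SULFO-TAG anti-rabbit detection), endogenous ATXN3 was quantified in lysates of cells treated 48 h at 37° C at 10,000 cells/well. Treatment used a 7-point 3.16-fold duplicate dilution series, with average IC50 grouped into star categories.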
compound,measurement,setting,value
"5-(2-chloro-6-((1R,6R)-6-(methylamino)cyclohex-3-en-1-yl)-4-((thiophen-2-ylmethyl)amino)thieno[3,2-d]pyrimidin-7-yl)pent-4-yn-1-ol and 5-(2-chloro-6-((1S,6S)-6-(methylamino)cyclohex-3-en-1-yl)-4-((thiophen-2-ylmethyl)amino)thieno[3,2-d]pyrimidin-7-yl)pent-4-yn-1-ol [Compound 293]",IC50,ATXN3 pre-mRNA,30 to 300 nM
same,IC50,[1],30 to 300 nM
"N[C@@H]1CC=CC[C@H]1c1sc2c(NCc3ccco3)cc(Cl)nc2c1Br [Compound 310, 2-((1R,6R)-6-aminocyclohex-3-en-1-yl)-3-bromo-5-chloro-N-(furan-2-ylmethyl)thieno[3,2-b]pyridin-7-amine]",IC50,ATXN3 pre-mRNA,30 to 300 nM
same,IC50,[1],30 to 300 nM
"N[C@H]1CC=CC[C@@H]1c1sc2c(NCc3ccco3)nc(Cl)nc2c1I [Compound 172, 6-((1S,6S)-6-aminocyclohex-3-en-1-yl)-2-chloro-N-(furan-2-ylmethyl)-7-iodothieno[3,2-d]pyrimidin-4-amine]",IC50,ATXN3 pre-mRNA,≤ 30 nM
same,IC50,[1],≤ 30 nM
"N[C@H]1CC=CC[C@@H]1c1sc2c(NCc3ccccc3)nc(Cl)nc2c1Br [Compound 241, 6-((1S,6S)-6-aminocyclohex-3-en-1-yl)-N-benzyl-7-bromo-2-chlorothieno[3,2-d]pyrimidin-4-amine]",IC50,ATXN3 pre-mRNA,≤ 30 nM
same,IC50,[1],≤ 30 nM
"Cc1c([C@@H]2OCCC[C@H]2N)sc2c(NCc3ccccc3)nc(Cl)nc12 [Compound 64, 6-((2R,3R)-3-aminotetrahydro-2H-pyran-2-yl)-N-benzyl-2-chloro-7-methylthieno[3,2-d]pyrimidin-4-amine]",IC50,ATXN3 pre-mRNA,> 1000 nM
same,IC50,[1],> 1000 nM
"Cc1c([C@H]2CCCC[C@@H]2N)sc2c(NCc3cccs3)cc(Cl)nc12 [Compound 71, 2-((1S,2S)-2-aminocyclohexyl)-5-chloro-3-methyl-N-(thiophen-2-ylmethyl)thieno[3,2-b]pyridin-7-amine]",IC50,ATXN3 pre-mRNA,≤ 30 nM
same,IC50,[1],≤ 30 nM
"Cc1c([C@H]2COCC[C@@H]2N)sc2c(NCc3cccs3)cc(Cl)nc12 [Compound 232, 2-((3R,4S)-4-aminotetrahydro-2H-pyran-3-yl)-5-chloro-3-methyl-N-(thiophen-2-ylmethyl)thieno[3,2-b]pyridin-7-amine]",IC50,ATXN3 pre-mRNA,≤ 30 nM
same,IC50,[1],≤ 30 nM
"CC#Cc1c([C@@H]2CCCC[C@H]2N)n(C(F)F)c2c(NCc3ccco3)nc(Cl)nc12 [Compound 318, 6-((1R,2R)-2-aminocyclohexyl)-2-chloro-5-(difluoromethyl)-N-(furan-2-ylmethyl)-7-(prop-1-yn-1-yl)-5H-pyrrolo[3,2-d]pyrimidin-4-amine]",IC50,ATXN3 pre-mRNA,30 to 300 nM
same,IC50,[1],30 to 300 nM
"N[C@@H]1CCCO[C@H]1c1sc2c(NCc3ccccc3)nc(Cl)nc2c1Br [Compound 70, 6-((2R,3R)-3-aminotetrahydro-2H-pyran-2-yl)-N-benzyl-7-bromo-2-chlorothieno[3,2-d]pyrimidin-4-amine]",IC50,ATXN3 pre-mRNA,> 1000 nM
same,IC50,[1],> 1000 nM
"N[C@@H]1CC=CC[C@H]1c1c(Cl)c2nc(Cl)cc(NCc3ccccc3)c2n1C(F)F [Compound 417, 2-((1R,6R)-6-aminocyclohex-3-en-1-yl)-N-benzyl-3,5-dichloro-1-(difluoromethyl)-1H-pyrrolo[3,2-b]pyridin-7-amine]",IC50,ATXN3 pre-mRNA,≤ 30 nM
same,IC50,[1],≤ 30 nM
"N[C@@H]1CC=CC[C@H]1c1sc2c(NCc3ccco3)cc(Cl)nc2c1Cl [Compound 299, 2-((1R,6R)-6-aminocyclohex-3-en-1-yl)-3,5-dichloro-N-(furan-2-ylmethyl)thieno[3,2-b]pyridin-7-amine]",IC50,ATXN3 pre-mRNA,30 to 300 nM
same,IC50,[1],30 to 300 nM
"N[C@H]1CC=CC[C@@H]1c1sc2c(NCc3ccccc3)cc(Cl)nc2c1I [Compound 190, 2-((1S,6S)-6-aminocyclohex-3-en-1-yl)-N-benzyl-5-chloro-3-iodothieno[3,2-b]pyridin-7-amine]",IC50,ATXN3 pre-mRNA,≤ 30 nM
same,IC50,[1],≤ 30 nM
"2-((2R,3S)-3-aminopiperidin-2-yl)-3-bromo-5-chloro-N-(thiophen-2-ylmethyl)thieno[3,2-b]pyridin-7-amine and 2-((2S,3R)-3-aminopiperidin-2-yl)-3-bromo-5-chloro-N-(thiophen-2-ylmethyl)thieno[3,2-b]pyridin-7-amine [Compound 46]",IC50,ATXN3 pre-mRNA,> 1000 nM
same,IC50,[1],> 1000 nM
"N[C@H]1CCC[C@@H]1c1sc2c(NCc3cccs3)cc(Cl)nc2c1I [Compound 162, 2-((1S,2S)-2-aminocyclopentyl)-5-chloro-3-iodo-N-(thiophen-2-ylmethyl)thieno[3,2-b]pyridin-7-amine]",IC50,ATXN3 pre-mRNA,≤ 30 nM
same,IC50,[1],≤ 30 nM
"N[C@H]1CCCCCC[C@@H]1c1sc2c(NCc3cccs3)cc(Cl)nc2c1I [Compound 122, 2-((1S,2S)-2-aminocyclooctyl)-5-chloro-3-iodo-N-(thiophen-2-ylmethyl)thieno[3,2-b]pyridin-7-amine]",IC50,ATXN3 pre-mRNA,> 1000 nM
same,IC50,[1],> 1000 nM
"Cc1c([C@@H]2OCCC[C@H]2N)sc2c(NCc3ccco3)nc(Cl)nc12 [Compound 61, 6-((2R,3R)-3-aminotetrahydro-2H-pyran-2-yl)-2-chloro-N-(furan-2-ylmethyl)-7-methylthieno[3,2-d]pyrimidin-4-amine]",IC50,ATXN3 pre-mRNA,> 1000 nM
same,IC50,[1],> 1000 nM
"N[C@@H]1CCCO[C@@H]1c1sc2c(NCc3cccs3)cc(Cl)nc2c1Br [Compound 15, 2-((2S,3R)-3-aminotetrahydro-2H-pyran-2-yl)-3-bromo-5-chloro-N-(thiophen-2-ylmethyl)thieno[3,2-b]pyridin-7-amine]",IC50,ATXN3 pre-mRNA,300 to 1000 nM
same,IC50,[1],300 to 1000 nM
"N[C@@H]1CCCO[C@H]1c1c(I)c2nc(Cl)nc(NCc3ccco3)c2n1C(F)F [Compound 422, 6-((2R,3R)-3-aminotetrahydro-2H-pyran-2-yl)-2-chloro-5-(difluoromethyl)-N-(furan-2-ylmethyl)-7-iodo-5H-pyrrolo[3,2-d]pyrimidin-4-amine]",IC50,ATXN3 pre-mRNA,30 to 300 nM
same,IC50,[1],30 to 300 nM
"6-((3R,4S)-3-aminotetrahydro-2H-pyran-4-yl)-2-chloro-N-(furan-2-ylmethyl)-7-((trimethylsilyl)ethynyl)thieno[3,2-d]pyrimidin-4-amine and 6-((3S,4R)-3-aminotetrahydro-2H-pyran-4-yl)-2-chloro-N-(furan-2-ylmethyl)-7-((trimethylsilyl)ethynyl)thieno[3,2-d]pyrimidin-4-amine [Compound 317]",IC50,ATXN3 pre-mRNA,30 to 300 nM
same,IC50,[1],30 to 300 nM
"C[C@@H]1C=CC[C@H](c2sc3c(NCc4cccs4)cc(Cl)nc3c2Br)[C@H]1N.C[C@H]1C=CC[C@@H](c2sc3c(NCc4cccs4)cc(Cl)nc3c2Br)[C@@H]1N (mixture of isomers) [Compound 294, 2-((1R,5S,6R)-6-amino-5-methylcyclohex-3-en-1-yl)-3-bromo-5-chloro-N-(thiophen-2-ylmethyl)thieno[3,2-b]pyridin-7-amine and 2-((1S,5R,6S)-6-amino-5-methylcyclohex-3-en-1-yl)-3-bromo-5-chloro-N-(thiophen-2-ylmethyl)thieno[3,2-b]pyridin-7-amine]",IC50,ATXN3 pre-mRNA,30 to 300 nM
same,IC50,[1],30 to 300 nM
"Cc1c([C@H]2CC=CC[C@@H]2N)sc2c(NCc3ccncc3F)nc(Cl)nc12 [Compound 253, 6-((1S,6S)-6-aminocyclohex-3-en-1-yl)-2-chloro-N-((3-fluoropyridin-4-yl)methyl)-7-methylthieno[3,2-d]pyrimidin-4-amine]",IC50,ATXN3 pre-mRNA,≤ 30 nM
same,IC50,[1],30 to 300 nM
